In US20240050434A1, “HORMAD1 THERAPEUTICS” (Royal Cancer Hospital, priority 2020, published 2024):

Tests used:
[1] = system: RPE1 cells expressing a doxycycline-inducible HORMAD1 expression construct; test: Mitotic slippage by time-lapse microscopy in nocodazole-arrested RPE1 cells; type: cell-based; conditions: 300 nM nocodazole arrest, then 100-200 nM reversine, 50 nM BOS172722 or AZD1152-HQPA
Procedure: A. Diagram of experimental outline. Cells were exposed to doxycycline for 3 days, arrested in mitosis using 300 nM nocodazole or 100 nM Paclitaxel. Mitotic cells were filmed every 4 minutes for 1200 minutes, and the time cells remained arrested in mitosis before exiting via mitotic slippage was assessed. […] RPE1 cells expressing a doxycycline-inducible HORMAD1 cDNA expression construct were exposed to doxycycline or vehicle (H2O) for three days at which point cells were exposed to 300 nM nocodazole and filmed every 4 minutes using time-lapse microscopy. The time individual cells remained arrested in mitosis was quantified and presented as the % of cells arrested in mitosis at each time point. Data reflects a total of 125 cells from 3 biological repeats and was analysed using Mantel-Cox test. C. […] The time individual cells remained arrested in mitosis was quantified and presented as the % of cells arrested in mitosis at each time point. Data reflects a total of 125 cells from 3 biological repeats and was analysed using Mantel-Cox test. […] H1299 cells expressing two individual, doxycycline-inducible, shRNA particles targeting HORMAD1 as well as a non-targeting control were grown for three days in the presence of doxycycline at which point cell lysates were generated and analysed by SDS-PAGE and western blotting using anti-HORMAD1 and anti-β-ACTIN antibodies. […] The time individual cells remained arrested in mitosis was quantified and presented as the % of cells arrested in mitosis at each time point. Data reflects a total of 90 cells from 3 biological repeats and was analysed using Mantel-Cox test with Bonferonni correction. […] Mitotic cells were filmed every 2 minutes for 400 minutes, and the time taken before cells exited mitosis via mitotic slippage was assessed. […] The time individual cells remained arrested in mitosis was quantified and presented as the % of cells arrested in mitosis at each time point. […] The time individual cells remained arrested in mitosis was quantified and presented as the % of cells arrested in mitosis at each time point. […]

AURORA B kinase = AURORA B kinase (Homo sapiens, UniProt Q96GD4); conditions: competitive ATP inhibition; Mortlock et al., 2007; cited from earlier work
[2] = system: MDA-157, MDA-468, MDA436 TNBC cell-lines and MCF10A, MTSV1 non-transformed breast cell-lines; test: SRB viability in HORMAD1-positive TNBC cell-lines versus non-transformed breast cell-lines; type: cell-based; conditions: increasing doses, 10-14 days post drugging
Procedure: To confirm that endogenous HORMAD1 expression in cancer cells (as opposed to transgene-driven HORMAD1 expression) also causes BUB1 inhibitor sensitivity, increasing doses of BUB1 inhibitor was added to 3 HORMAD1-positive triple-negative breast cancer cell-lines (TNBC) and 2 HORMAD1-negative non-transformed breast cell-lines.
Three HORMAD1 positive TNBC cell-lines (MDA-157, MDA-468, MDA436) and two non-transformed breast cell-lines (MCF10A and MTSV1) were treated with increasing doses of BUB1 inhibitor BAY-1816032. 10-14 days post drugging, cell viability was estimated by staining cells with SRB and measuring absorbance. Surviving fractions were calculated (normalised to vehicle treated cells). Data is from 3 replicas, analysed using 2-way ANOVA.

[3] = system: organoids from spontaneous tumours of WB1P mouse with or without human HORMAD1; test: Organoids from genetically engineered mouse model tumours, viability by cell titre glo; type: cell-based; conditions: increasing doses, 14 days post drugging
Description: In a further experiment, HORMAD1 was expressed within a genetically engineered mouse model of triple-negative breast cancer (original model published in Annunziato et al., 2019). Human HORMAD1 was expressed in the WB1P mouse (Annunziato et al., 2019) using a transgene and derived organoids from spontaneous tumours.
Genetically engineered mouse models were generated by conditionally deleting BRCA1 and P53 in breast epithelia (Liu et al., 2007). Human HORMAD1 fused to luciferase was conditionally expressed under a breast-specific promoter. Spontaneous tumours from these mice were isolated and grown as organoids, treated with increasing doses of BUB1 inhibitor, BAY-1816032. 14 days post drugging, cell viability was estimated using cell titre glo reagent. Surviving fractions were calculated (normalised to vehicle treated cells). Data from 3 replicas, analysed using 2-way ANOVA.

Sequence of AURORA B kinase (Q96GD4 whole entry): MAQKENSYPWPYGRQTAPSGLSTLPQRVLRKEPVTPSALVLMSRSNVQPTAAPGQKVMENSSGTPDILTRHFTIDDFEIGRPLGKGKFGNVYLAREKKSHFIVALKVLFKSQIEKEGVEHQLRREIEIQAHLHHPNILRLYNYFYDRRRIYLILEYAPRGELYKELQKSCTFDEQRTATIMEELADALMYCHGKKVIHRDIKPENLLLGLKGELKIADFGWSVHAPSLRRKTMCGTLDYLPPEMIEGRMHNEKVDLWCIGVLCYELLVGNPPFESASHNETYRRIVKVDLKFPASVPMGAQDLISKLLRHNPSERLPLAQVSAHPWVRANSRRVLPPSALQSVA

Compound | mitotic slippage / mitotic exit in HORMAD1 induced RPE1 cells [1] | inhibition of AURORA B kinase activity (AURORA B kinase) | surviving fraction, HORMAD1-positive TNBC cell-lines compared with HORMAD1-negative non-transformed cell-lines [2] | growth inhibition of HORMAD1-expressing versus HORMAD1-negative mouse tumour organoids [3]
CCN(CCO)CCCOc1ccc2c(Nc3cc(CC(=O)Nc4cccc(F)c4)[nH]n3)ncnc2c1 [AZD1152-HQPA] | Very similar results | potently inhibits |  | 
COc1cnccc1Nc1nc(-c2nn(Cc3c(F)cc(OCCO)cc3F)c3ccccc23)ncc1OC [BAY-1816032] |  |  | significant differences | more effectively inhibited
